The source of these data is article PMC5036617 (Toxicological Sciences, 2016).

Like-named read-outs stand apart in the source and are kept apart here. Bounds are passed on as bounds.

The conditions of data set [1]: cited from earlier work.
Data set [2] has as its system HepG2 cells. The data set can be described thus: Cellular ATP content of HepG2 cells in glucose or galactose medium (ATP bioluminescent assay). Conditions: 2 h; for EC50ATPglu/EC50ATPgal: ratio ≥ 2 identifies a mitochondrial liability; for EC50: Homo sapiens, concentration reducing cellular ATP content by 50%. It is filed as cell-based. The protocol:
Metabolic switching of cells was performed based on work previously described by ([[…] et al., 2015]). Briefly, 24 h prior to metabolic switch, HepG2 cells were collected by trypsinization and seeded on a collagen-coated flat-bottomed 96-well plate (20 000 cells/50 μl/well) and incubated (37°C, 5% CO2) overnight. […] Flutamide, 2-hydroxyflutamide and bicalutamide stock solutions were prepared in DMSO and diluted further in the appropriate medium. Compounds (50 μl) were then added to each well and cells were incubated for 2 h (37 °C, 5% CO2). All assays used ≤ 0.5% DMSO as a vehicle control. […] LDH content of the cells and supernatant was assessed using a cytotoxicity detection kit according to the manufacturer's instructions. ATP content was assessed using an ATP bioluminescent assay according to the manufacturer's instructions. Briefly, 10 μl of cell lysate or ATP standard curve solutions were added to a white-walled 96-well plate before addition of 40 μl ATP assay mix. Protein content of all wells was then assessed using a BCA assay applied to 10 μl of cell lysate and standards. LDH (490 nm), BCA (570 nm), and ATP assay luminescence were then measured using a plate reader (Varioskan, Thermo Scientific). ATP content readings were normalized to protein content. Experiments were conducted in a minimum of triplicate to ensure the reliability of single values. EC50 data were determined by nonlinear regression analysis using GraphPad Prism 5.0. Normality was assessed using a Shapiro-Wilk statistical test. Statistical significance was determined by an unpaired t-test for parametric data and a Mann-Whitney U test for non-parametric data using StatsDirect 2.7.9. P < .05 was taken as showing a significant difference.

The test system of data set [3] is HepG2 cells. The data set can be described thus: Mitochondrial stress test, OCR analysis (Seahorse XFe96). Format: cell-based. Conditions: vs vehicle control. How it is done: HepG2 cells were collected by trypsinization and seeded on a collagen-coated XF 96-well cell culture microplate (25 000 cells/100 µl medium/well) and incubated overnight in glucose medium (37 °C, 5% CO2). All assays used ≤ 0.5% DMSO as a vehicle control. Cells were incubated for 1 h (37°C, 0% CO2) before culture medium was replaced by 175 µl of unbuffered Seahorse XF Base medium supplemented with glucose (25 mM), L-glutamine (2 mM), sodium pyruvate (1 mM), pre-warmed to 37 °C (pH 7.4). Prior to measurement of OCR, the Seahorse XFe96 instrument gently mixed the assay medium in each well for 10 min to enable the oxygen partial pressure to reach equilibrium. […] There were 9 OCR measurement cycles following compound injection and each measurement cycle consisted of a 3 min mix and 3 min measure. […] After stress test compound injections there were 3 measurement cycles before the injection of the next stress test compound. This enabled the calculation of basal respiration (OCR prior to oligomycin injection—non-mitochondrial OCR), proton leak (OCR after oligomycin injection—non-mitochondrial OCR), ATP-linked OCR (basal respiration—proton leak—non-mitochondrial OCR), maximal respiration (first injection after FCCP injection—non-mitochondrial OCR) and spare respiratory capacity (maximal respiration—basal respiration) (Figure 2).  FIG. 2 Representative control mitochondrial stress test trace. Mitochondrial stress test assays consisted of a series of compound injections into the cell culture microplate. […] Remaining injections consisted of oligomycin (ATP synthase inhibitor), FCCP (OXPHOS uncoupler), and rotenone/antimycin A (complex I and III inhibitors, respectively) with each followed by 3 measurement cycles. This series of manipulations enabled the calculation of parameters: basal, ATP-linked, maximum, and non-mitochondrial OCR, as well as proton leak. Each measurement cycle was a total of 6 min. Following completion of OCR assays, medium was removed from all wells and 20 µl of somatic cell ATP releasing agent was added to each well before shaking for 1 min and transfer of 10 µl of lysate to a 96-well plate and performance of a BCA assay according to the manufacturer’s instructions. Protein content per well was used to normalize OCR.

For `Nc1ccc([N+](=O)[O-])c(C(F)(F)F)c1` [3-trifluoromethyl-4-nitroaniline], in data set [1] (plasma, metabolite after single 250 mg dose of flutamide, ref Schulz et al., 1988, read-out: maximum plasma concentration (Cmax)), the Cmax was 1310 nM.
As for `C[C@](O)(CS(=O)(=O)c1ccc(F)cc1)C(=O)Nc1ccc(C#N)c(C(F)(F)F)c1` [(R)-bicalutamide], in data set [1] (single 50 mg dose, ref Cockshott, 2004), the half-life is 140 h. Besides, in data set [1] (single 50 mg dose, ref Cockshott, 2004, read-out: Cmax), the Cmax is 1700 nM.
For the molecule `CC(O)(CS(=O)(=O)c1ccc(F)cc1)C(=O)Nc1ccc(C#N)c(C(F)(F)F)c1` (stereo not shown) [Bicalutamide], the EC50ATPglu/EC50ATPgal in the data set with HepG2 cells [2] was 1.44 (0.22). Moreover, the EC50ATPglu/EC50ATPgal in the data set on HepG2 cells [2] (listed as bicalutamide) is reported as ≤ 2. In addition, the “decrease in ATP content in galactose medium compared with glucose medium” value in the data set with HepG2 cells [2] (up to 300 µM) is “this was not the case for bicalutamide”. Further, in the data set with HepG2 cells [2] (galactose medium, read-out: EC50ATP (μM) Galactose), the EC50 was found to be 103 µM. In the data set on HepG2 cells [2] (glucose medium, read-out: EC50ATP (μM) Glucose), the EC50 was found to be 148 µM. Besides, in the data set on HepG2 cells [3] (glucose medium, 7.8–500 µM), the basal respiration entry is on record as “only caused a significant decrease in maximal respiration” and the maximal respiration result is “significant decrease”. Moreover, in the data set with HepG2 cells [3] (up to 500 µM), the “ATP-linked OCR as a percentage of maximal respiration” value is listed as “not observed”, the “proton leak as a percentage of maximal respiration” value is “not observed” and the “spare respiratory capacity as a percentage of maximal respiration” value is “not observed”.

In general, half-life refers to the time in which the quantity being followed falls by half.
